According to US11000033B2, “Ketone or oxime compound, and herbicide” (NISSAN CHEMICAL CORPORATION, priority 2014, dated 2021):

Columns and labels:
Type in all cases: in vivo
Conditions in all cases: 320 g/ha, 3 weeks after application
corn = assay: Test Example 5: effect on crop by foliage application, plastic box (symbol c)
Description: (§1) Herbicidal Effect Test by Foliage Application
(§2) Sterilized diluvial soil was placed in a plastic box having a length of 21 cm, a width of 13 cm, and a depth of 7 cm. Each of the seeds of Digitaria ciliaris, Setaria viridis, Echinochloa crus-galli var. crus-galli, Avena fatua, Alopecurus myosuroides, Lolium multiflorum Lam., Apera spica-venti, Abutilon theophrasti, Amaranthus retroflexus, Chenopodium album, Stellaria media, Galium spurium, Veronica persica, corn, soybean, rice plant, wheat, beet, and rapeseed was sowed in a spot-like manner and was covered with the soil of a thickness of about 1.5 cm. Thereafter, the plants were grown in the greenhouse of 25° C. to 30° C.

Amaranthus retroflexus = assay: Test Example 5: herbicidal effect by foliage application, plastic box (symbol N)
Description: as §1
as §2, with “30° C. After the plants were grown for 14 days, the emulsion agent of the compound of the present invention prepared in accordance with Formulation Example 2 was diluted with water so as to be a predetermined herbicide amount and the diluted emulsion agent was uniformly applied to a foliage part with a small-size spray. 3 weeks later from the herbicide application, the effect to each plant was investigated in accordance with the criteria of Test Example 1.” for “30° C.”

Digitaria ciliaris = assay: Test Example 5: herbicidal effect by foliage application, plastic box (symbol F)
Description: as §1
as §2, with “30° C. After the plants were grown for 14 days, the emulsion agent of the compound of the present invention prepared in accordance with Formulation Example 2 was diluted with water so as to be a predetermined herbicide amount and the diluted emulsion agent was uniformly applied to a foliage part with a small-size spray. 3 weeks later from the herbicide application, the effect to each plant was investigated in accordance with the criteria of Test Example 1.” for “30° C.”

Lolium multiflorum Lam. = assay: Test Example 5: herbicidal effect by foliage application, plastic box (symbol K)
Description: as §1
as §2, with “30° C. After the plants were grown for 14 days, the emulsion agent of the compound of the present invention prepared in accordance with Formulation Example 2 was diluted with water so as to be a predetermined herbicide amount and the diluted emulsion agent was uniformly applied to a foliage part with a small-size spray. 3 weeks later from the herbicide application, the effect to each plant was investigated in accordance with the criteria of Test Example 1.” for “30° C.”

beet = assay: Test Example 5: effect on crop by foliage application, plastic box (symbol f)
Description: as §1, §2

soybean = assay: Test Example 5: effect on crop by foliage application, plastic box (symbol d)
Description: as §1, §2

wheat = assay: Test Example 5: effect on crop by foliage application, plastic box (symbol e)
Description: as §1, §2

Setaria viridis = assay: Test Example 5: herbicidal effect by foliage application, plastic box (symbol G)
Description: as §1
as §2, with “30° C. After the plants were grown for 14 days, the emulsion agent of the compound of the present invention prepared in accordance with Formulation Example 2 was diluted with water so as to be a predetermined herbicide amount and the diluted emulsion agent was uniformly applied to a foliage part with a small-size spray. 3 weeks later from the herbicide application, the effect to each plant was investigated in accordance with the criteria of Test Example 1.” for “30° C.”

Stellaria media = assay: Test Example 5: herbicidal effect by foliage application, plastic box (symbol P)
Description: as §1
as §2, with “30° C. After the plants were grown for 14 days, the emulsion agent of the compound of the present invention prepared in accordance with Formulation Example 2 was diluted with water so as to be a predetermined herbicide amount and the diluted emulsion agent was uniformly applied to a foliage part with a small-size spray. 3 weeks later from the herbicide application, the effect to each plant was investigated in accordance with the criteria of Test Example 1.” for “30° C.”

Avena fatua = assay: Test Example 5: herbicidal effect by foliage application, plastic box (symbol I)
Description: as §1
as §2, with “30° C. After the plants were grown for 14 days, the emulsion agent of the compound of the present invention prepared in accordance with Formulation Example 2 was diluted with water so as to be a predetermined herbicide amount and the diluted emulsion agent was uniformly applied to a foliage part with a small-size spray. 3 weeks later from the herbicide application, the effect to each plant was investigated in accordance with the criteria of Test Example 1.” for “30° C.”

Galium spurium = assay: Test Example 5: herbicidal effect by foliage application, plastic box (symbol Q)
Description: as §1
as §2, with “30° C. After the plants were grown for 14 days, the emulsion agent of the compound of the present invention prepared in accordance with Formulation Example 2 was diluted with water so as to be a predetermined herbicide amount and the diluted emulsion agent was uniformly applied to a foliage part with a small-size spray. 3 weeks later from the herbicide application, the effect to each plant was investigated in accordance with the criteria of Test Example 1.” for “30° C.”

Abutilon theophrasti = assay: Test Example 5: herbicidal effect by foliage application, plastic box (symbol M)
Description: as §1
as §2, with “30° C. After the plants were grown for 14 days, the emulsion agent of the compound of the present invention prepared in accordance with Formulation Example 2 was diluted with water so as to be a predetermined herbicide amount and the diluted emulsion agent was uniformly applied to a foliage part with a small-size spray. 3 weeks later from the herbicide application, the effect to each plant was investigated in accordance with the criteria of Test Example 1.” for “30° C.”

Chenopodium album = assay: Test Example 5: herbicidal effect by foliage application, plastic box (symbol O)
Description: as §1
as §2, with “30° C. After the plants were grown for 14 days, the emulsion agent of the compound of the present invention prepared in accordance with Formulation Example 2 was diluted with water so as to be a predetermined herbicide amount and the diluted emulsion agent was uniformly applied to a foliage part with a small-size spray. 3 weeks later from the herbicide application, the effect to each plant was investigated in accordance with the criteria of Test Example 1.” for “30° C.”

Veronica persica = assay: Test Example 5: herbicidal effect by foliage application, plastic box (symbol R)
Description: as §1
as §2, with “30° C. After the plants were grown for 14 days, the emulsion agent of the compound of the present invention prepared in accordance with Formulation Example 2 was diluted with water so as to be a predetermined herbicide amount and the diluted emulsion agent was uniformly applied to a foliage part with a small-size spray. 3 weeks later from the herbicide application, the effect to each plant was investigated in accordance with the criteria of Test Example 1.” for “30° C.”

rice plant = assay: Test Example 5: effect on crop by foliage application, plastic box (symbol b)
Description: as §1, §2

Alopecurus myosuroides = assay: Test Example 5: herbicidal effect by foliage application, plastic box (symbol J)
Description: as §1
as §2, with “30° C. After the plants were grown for 14 days, the emulsion agent of the compound of the present invention prepared in accordance with Formulation Example 2 was diluted with water so as to be a predetermined herbicide amount and the diluted emulsion agent was uniformly applied to a foliage part with a small-size spray. 3 weeks later from the herbicide application, the effect to each plant was investigated in accordance with the criteria of Test Example 1.” for “30° C.”

rapeseed = assay: Test Example 5: effect on crop by foliage application, plastic box (symbol g)
Description: as §1, §2

Apera spica-venti = assay: Test Example 5: herbicidal effect by foliage application, plastic box (symbol L)
Description: as §1
as §2, with “30° C. After the plants were grown for 14 days, the emulsion agent of the compound of the present invention prepared in accordance with Formulation Example 2 was diluted with water so as to be a predetermined herbicide amount and the diluted emulsion agent was uniformly applied to a foliage part with a small-size spray. 3 weeks later from the herbicide application, the effect to each plant was investigated in accordance with the criteria of Test Example 1.” for “30° C.”

[1] = tested on: Echinochloa crus-galli var. crus-galli; assay: Test Example 5: herbicidal effect by foliage application, plastic box (symbol H)
Description: as §1
as §2, with “30° C. After the plants were grown for 14 days, the emulsion agent of the compound of the present invention prepared in accordance with Formulation Example 2 was diluted with water so as to be a predetermined herbicide amount and the diluted emulsion agent was uniformly applied to a foliage part with a small-size spray. 3 weeks later from the herbicide application, the effect to each plant was investigated in accordance with the criteria of Test Example 1.” for “30° C.”

For `CON=C(C)CC1CC(OC)=C(c2c(C)cc(-c3ccc(SC)cc3)cc2C)C1=O` (mixture of isomers) [6-021], the “c: corn, effect on crop grade” value (corn) was 0 (Herbicidal ratio of 5% or lower (almost no effect)), the “N: Amaranthus retroflexus, herbicidal effect grade” value (Amaranthus retroflexus) was 0 (Herbicidal ratio of 5% or lower (almost no effect)) and the “F: Digitaria ciliaris, herbicidal effect grade” value (Digitaria ciliaris) was 0 (Herbicidal ratio of 5% or lower (almost no effect)). The “K: Lolium multiflorum Lam., herbicidal effect grade” value (Lolium multiflorum Lam.) was 5 (Herbicidal ratio of 90% or more (almost completely withered)), the “f: beet, effect on crop grade” value (beet) was 0 (Herbicidal ratio of 5% or lower (almost no effect)) and the “d: soybean, effect on crop grade” value (soybean) was 0 (Herbicidal ratio of 5% or lower (almost no effect)). The “e: wheat, effect on crop grade” value (wheat) was 0 (Herbicidal ratio of 5% or lower (almost no effect)), the “G: Setaria viridis, herbicidal effect grade” value (Setaria viridis) was 3 (Herbicidal ratio of 40% or higher and lower than 70%) and the “P: Stellaria media, herbicidal effect grade” value (Stellaria media) was 0 (Herbicidal ratio of 5% or lower (almost no effect)). The “I: Avena fatua, herbicidal effect grade” value (Avena fatua) was 1 (Herbicidal ratio of 5% or higher and lower than 20%), the “Q: Galium spurium, herbicidal effect grade” value (Galium spurium) was 0 (Herbicidal ratio of 5% or lower (almost no effect)) and the “M: Abutilon theophrasti, herbicidal effect grade” value (Abutilon theophrasti) was 0 (Herbicidal ratio of 5% or lower (almost no effect)). For the same compound, the “O: Chenopodium album, herbicidal effect grade” value (Chenopodium album) was 0 (Herbicidal ratio of 5% or lower (almost no effect)), the “R: Veronica persica, herbicidal effect grade” value (Veronica persica) was 0 (Herbicidal ratio of 5% or lower (almost no effect)) and the “b: directly sowed rice plant, effect on crop grade” value (rice plant) was 0 (Herbicidal ratio of 5% or lower (almost no effect)). The “J: Alopecurus myosuroides, herbicidal effect grade” value (Alopecurus myosuroides) was 3 (Herbicidal ratio of 40% or higher and lower than 70%) and the “g: rapeseed, effect on crop grade” value (rapeseed) was 3 (Herbicidal ratio of 40% or higher and lower than 70%).

With `CON=C(C)CC1CC(OC(=O)N(c2ccccc2)C(C)C)=C(c2c(C)cc(C)cc2C)C1=O` (stereo not drawn) [1-127] the “c: corn, effect on crop (criteria 0-5)” value (corn) was 0 (Herbicidal ratio of 5% or lower (almost no effect)), the “N: Amaranthus retroflexus, herbicidal effect (criteria 0-5)” value (Amaranthus retroflexus) was 0 (Herbicidal ratio of 5% or lower (almost no effect)) and the “F: Digitaria ciliaris, herbicidal effect (criteria 0-5)” value (Digitaria ciliaris) was 0 (Herbicidal ratio of 5% or lower (almost no effect)). The “K: Lolium multiflorum Lam., herbicidal effect (criteria 0-5)” value (Lolium multiflorum Lam.) was 1 (Herbicidal ratio of 5% or higher and lower than 20%), the “f: beet, effect on crop (criteria 0-5)” value (beet) was 0 (Herbicidal ratio of 5% or lower (almost no effect)) and the “d: soybean, effect on crop (criteria 0-5)” value (soybean) was 0 (Herbicidal ratio of 5% or lower (almost no effect)). For the same compound, the “L: Apera spica-venti, herbicidal effect (criteria 0-5)” value (Apera spica-venti) was 0 (Herbicidal ratio of 5% or lower (almost no effect)), the “e: wheat, effect on crop (criteria 0-5)” value (wheat) was 0 (Herbicidal ratio of 5% or lower (almost no effect)) and the “H: Echinochloa crus-galli var. crus-galli, herbicidal effect (criteria 0-5)” value [1] was 0 (Herbicidal ratio of 5% or lower (almost no effect)). The “G: Setaria viridis, herbicidal effect (criteria 0-5)” value (Setaria viridis) was 0 (Herbicidal ratio of 5% or lower (almost no effect)), the “P: Stellaria media, herbicidal effect (criteria 0-5)” value (Stellaria media) was 0 (Herbicidal ratio of 5% or lower (almost no effect)) and the “I: Avena fatua, herbicidal effect (criteria 0-5)” value (Avena fatua) was 0 (Herbicidal ratio of 5% or lower (almost no effect)). For the same compound, the “Q: Galium spurium, herbicidal effect (criteria 0-5)” value (Galium spurium) was 0 (Herbicidal ratio of 5% or lower (almost no effect)), the “M: Abutilon theophrasti, herbicidal effect (criteria 0-5)” value (Abutilon theophrasti) was 0 (Herbicidal ratio of 5% or lower (almost no effect)) and the “O: Chenopodium album, herbicidal effect (criteria 0-5)” value (Chenopodium album) was 0 (Herbicidal ratio of 5% or lower (almost no effect)). The “R: Veronica persica, herbicidal effect (criteria 0-5)” value (Veronica persica) was 0 (Herbicidal ratio of 5% or lower (almost no effect)), the “b: directly sowed rice plant, effect on crop (criteria 0-5)” value (rice plant) was 0 (Herbicidal ratio of 5% or lower (almost no effect)) and the “J: Alopecurus myosuroides, herbicidal effect (criteria 0-5)” value (Alopecurus myosuroides) was 1 (Herbicidal ratio of 5% or higher and lower than 20%). For the same compound, the “g: rapeseed, effect on crop (criteria 0-5)” value (rapeseed) was 0 (Herbicidal ratio of 5% or lower (almost no effect)).
